In ChEMBL document CHEMBL4765295, “Synthesis, pharmacological profile and 2D-QSAR studies of curcumin-amino acid conjugates as potential drug candidates” (Eur J Med Chem, 2020):
Values joined by “and” are separate entries in the source; they are usually repeats but may differ in a detail not shown here. Identical values can stand only once.

How the values were obtained:
Rattus norvegicus [1] = test: Anti-inflammatory activity in Wistar rat assessed as inhibition of carrageenan-induced paw edema at 10 mg/kg, ip pretreated for 1 hr followed by carrageenan challenge and measured after 3 hr relative to control (reference value: 0.00 +/-0.1 %); type: functional; conditions: time 4 hrs
Peritoneal macrophage [2] = test: Antiinflammatory activity in […] mouse Peritoneal macrophages assessed as inhibition of LPS-induced NO production at 10 uM preincubated for 1 hr followed by LPS stimulation measured after 24 hrs by Griess method relative to control (reference value: 0.0 %); type: functional; parameters: scale not given: the % may be the effect or the level left; conditions: time 25 hrs
Rattus norvegicus [3] = test: Anti-inflammatory activity in Wistar rat assessed as inhibition of carrageenan-induced paw edema at 10 mg/kg, ip pretreated for 1 hr followed by carrageenan challenge and measured after 24 hr relative to control (reference value: 0.00 +/-0.3 %); type: functional; conditions: time 25 hrs
Candida albicans = test: Antifungal activity against Candida albicans incubated for 18 to 24 hrs by CLSI method; type: functional; conditions: time 18-24 hrs
Rattus norvegicus [4] = test: Anti-inflammatory activity in Wistar rat assessed as inhibition of carrageenan-induced paw edema at 10 mg/kg, ip pretreated for 1 hr followed by carrageenan challenge and measured after 2 hr relative to control (reference value: 0.00 +/-0.03 %); type: functional; conditions: time 3 hrs
Rattus norvegicus [5] = test: Anti-inflammatory activity in Wistar rat assessed as inhibition of carrageenan-induced paw edema at 10 mg/kg, ip pretreated for 1 hr followed by carrageenan challenge and measured after 4 hr relative to control (reference value: 0.00 +/-0.4 %); type: functional; conditions: time 5 hrs
Staphylococcus aureus = test: Antibacterial activity against Staphylococcus aureus ATCC 25923 incubated for 18 hrs by agar dilution method; type: functional
Pseudomonas aeruginosa = test: Antibacterial activity against Pseudomonas aeruginosa ATCC 27853 incubated for 18 hrs by agar dilution assay; type: functional
Splenocyte [6] = test: Immunomodulatory activity in Swiss albino mouse splenocytes assessed as cell viability at 10 uM by measuring inhibition of stimulation index incubated for 72 hrs in presence of mitogenic stimulus phytohaemagglutinin by MTT assay relative to indomethacin; type: functional; conditions: read-out: Activity
Rattus norvegicus [7] = test: Antiinflammatory activity in Wistar rat model of carrageenan-induced paw edema assessed as reduction in thickness of paw edema at 10 mg/kg, ip pretreated for 1 hr followed by carrageenan challenge and measured after 4 hrs (reference value: 1.40 +/-0.10 mm); type: functional; conditions: time 5 hrs
Rattus norvegicus [8] = test: Antiinflammatory activity in Wistar rat model of carrageenan-induced paw edema assessed as reduction in thickness of paw edema at 10 mg/kg, ip pretreated for 1 hr followed by carrageenan challenge and measured after 24 hrs (reference value: 0.83 +/-0.08 mm); type: functional; conditions: time 25 hrs
Streptococcus pyogenes = test: Antibacterial activity against Streptococcus pyogenes ATCC 19615 incubated for 18 hrs by agar dilution method; type: functional
Rattus norvegicus [9] = test: Anti-inflammatory activity in Wistar rat assessed as inhibition of carrageenan-induced paw edema at 10 mg/kg, ip pretreated for 1 hr followed by carrageenan challenge and measured after 1 hr relative to control (reference value: 0.00 +/-0.02 %); type: functional; conditions: time 2 hrs
Salmonella typhimurium = test: Antibacterial activity against Salmonella typhimurium ATCC 19430 incubated for 18 hrs by agar dilution assay; type: functional, Salmonella enterica subsp. enterica serovar Typhimurium; conditions: Salmonella enterica
Rattus norvegicus [10] = test: Anti-inflammatory activity in Wistar rat assessed as inhibition of carrageenan-induced paw edema at 10 mg/kg, ip pretreated for 1 hr followed by carrageenan challenge and measured after 4 hr relative to indomethacin; type: functional; conditions: time 5 hrs
Splenocyte [11] = test: Immunomodulatory activity in Swiss albino mouse splenocytes assessed as cell viability at 10 uM by measuring stimulation index incubated for 72 hrs in presence of mitogenic stimulus phytohaemagglutinin by MTT assay (reference value: 1.00 +/- 0.24); type: functional
Rattus norvegicus [12] = test: Antiinflammatory activity in Wistar rat model of carrageenan-induced paw edema assessed as reduction in thickness of paw edema at 10 mg/kg, ip pretreated for 1 hr followed by carrageenan challenge and measured after 3 hrs (reference value: 1.79 +/-0.07 mm); type: functional; conditions: time 4 hrs
Peritoneal macrophage [13] = test: Antiinflammatory activity in […] mouse Peritoneal macrophages assessed as reduction in LPS-induced NO production by measuring reduction in stimulation index at 10 uM preincubated for 1 hr followed by LPS stimulation measured after 24 hrs by Griess method (reference value: 27.31 +/- 2.56 uM); type: functional; conditions: time 25 hrs
Rattus norvegicus [14] = test: Antiinflammatory activity in Wistar rat model of carrageenan-induced paw edema assessed as reduction in thickness of paw edema at 10 mg/kg, ip pretreated for 1 hr followed by carrageenan challenge and measured after 1 hr (reference value: 2.41 +/-0.05 mm); type: functional; conditions: time 1 hr after carrageenan
Rattus norvegicus [15] = test: Antiinflammatory activity in Wistar rat model of carrageenan-induced paw edema assessed as reduction in thickness of paw edema at 10 mg/kg, ip pretreated for 1 hr followed by carrageenan challenge and measured after 2 hrs (reference value: 2.06 +/-0.09 mm); type: functional; conditions: time 3 hrs

MIC (Candida albicans) | MIC (Staphylococcus aureus) | MIC (Pseudomonas aeruginosa) | MIC (Streptococcus pyogenes) | MIC (Salmonella typhimurium) | Compound | inhibition in vivo at 10 mg/kg (Rattus norvegicus [1]) | Activity (Peritoneal macrophage [2]) | inhibition in vivo at 10 mg/kg (Rattus norvegicus [3]) | inhibition in vivo at 10 mg/kg (Rattus norvegicus [4]) | inhibition in vivo at 10 mg/kg (Rattus norvegicus [5]) | viability at 10 µM (Splenocyte [6]) | Activity (Rattus norvegicus [7]) | Activity (Rattus norvegicus [8]) | inhibition in vivo at 10 mg/kg (Rattus norvegicus [9]) | inhibition in vivo at 10 mg/kg (Rattus norvegicus [10]) | Activity_index (Splenocyte [11]) | Activity (Rattus norvegicus [12]) | Activity (Peritoneal macrophage [13]) | Activity (Rattus norvegicus [14]) | Activity (Rattus norvegicus [15])
2 µg/mL and 2.15 µM | 0.125 µg/mL and 0.134 µM | 0.25 µg/mL and 0.269 µM | 0.125 µg/mL and 0.134 µM | 0.125 µg/mL and 0.134 µM | COc1cc(/C=C/C(=O)/C=C(O)/C=C/c2ccc(OC(=O)[C@H](Cc3ccccc3)NC(=O)OCc3ccccc3)c(OC)c2)ccc1OC(=O)[C@H](Cc1ccccc1)NC(=O)OCc1ccccc1 | 9% | 3.6% | 1% | 24% | 5% | 41.5% | 1.38 mm | 0.82 mm | 59% | 6% | 2.91 | 1.63 mm | 26.33 µM | 1 mm | 1.56 mm
0.5 µg/mL and 0.666 µM | 0.125 µg/mL and 0.166 µM | 1 µg/mL and 1.33 µM | 0.125 µg/mL and 0.166 µM | 0.5 µg/mL and 0.666 µM | COc1cc(/C=C/C(=O)/C=C(O)/C=C/c2ccc(OC(=O)CNC(=O)OCc3ccccc3)c(OC)c2)ccc1OC(=O)CNC(=O)OCc1ccccc1 | 37% | 10.11% | 0% | 32% | 34% | 45.8% | 0.92 mm | 0.83 mm | 64% | 39% | 2.64 | 1.13 mm | 24.55 µM | 0.87 mm | 1.41 mm
0.5 µg/mL and 0.732 µM | 0.25 µg/mL and 0.366 µM | 0.25 µg/mL and 0.366 µM | 1 µg/mL and 1.47 µM | 0.125 µg/mL and 0.183 µM | COc1cc(/C=C/C(=O)/C=C(O)/C=C/c2ccc(OC(=O)CNC(=O)OC(C)(C)C)c(OC)c2)ccc1OC(=O)CNC(=O)OC(C)(C)C | 44% | 33.65% | 47% | 44% | 48% | 57.4% | 0.73 mm | 0.44 mm | 43% | 55% | 2.11 | 1 mm | 18.12 µM | 1.37 mm | 1.16 mm
0.5 µg/mL and 0.703 µM | 0.25 µg/mL and 0.352 µM | 0.25 µg/mL and 0.352 µM | 0.25 µg/mL and 0.352 µM | 0.5 µg/mL and 0.703 µM | COc1cc(/C=C/C(=O)/C=C(O)/C=C/c2ccc(OC(=O)CCNC(=O)OC(C)(C)C)c(OC)c2)ccc1OC(=O)CCNC(=O)OC(C)(C)C | 45% | 32.81% | 28% | 33% | 61% | 71.1% | 0.55 mm | 0.6 mm | 31% | 70% | 1.7 | 0.99 mm | 18.35 µM | 1.66 mm | 1.38 mm
2 µg/mL and 2.42 µM | 0.125 µg/mL and 0.152 µM | 1 µg/mL and 1.21 µM | 0.25 µg/mL and 0.303 µM | 0.125 µg/mL and 0.152 µM | COc1cc(/C=C/C(=O)/C=C(O)/C=C/c2ccc(OC(=O)[C@H](CCC(N)=O)NC(=O)OC(C)(C)C)c(OC)c2)ccc1OC(=O)[C@H](CCC(N)=O)NC(=O)OC(C)(C)C | 32% | 22.29% | 57% | 16% | 41% | 56.6% | 0.83 mm | 0.36 mm | 10% | 47% | 2.14 | 1.22 mm | 21.22 µM | 2.16 mm | 1.73 mm
2 µg/mL and 2.52 µM | 0.125 µg/mL and 0.157 µM | 1 µg/mL and 1.26 µM | 0.25 µg/mL and 0.314 µM | 0.125 µg/mL and 0.157 µM | CC[C@H](C)[C@H](NC(=O)OC(C)(C)C)C(=O)Oc1ccc(/C=C/C(=O)/C=C(O)/C=C/c2ccc(OC(=O)[C@@H](NC(=O)OC(C)(C)C)[C@@H](C)CC)c(OC)c2)cc1OC | 49% | 23.82% | 41% | 38% | 51% | 58.3% | 0.69 mm | 0.49 mm | 33% | 59% | 2.07 | 0.91 mm | 20.81 µM | 1.61 mm | 1.27 mm
2 µg/mL and 2.57 µM | 0.25 µg/mL and 0.321 µM | 2 µg/mL and 2.57 µM | 0.125 µg/mL and 0.161 µM | 0.5 µg/mL and 0.642 µM | COc1cc(/C=C/C(=O)/C=C(O)/C=C/c2ccc(OC(=O)[C@H](C)NC(=O)OCc3ccccc3)c(OC)c2)ccc1OC(=O)[C@H](C)NC(=O)OCc1ccccc1 | 22% | 8.86% | 0% | 23% | 12% | 44.9% | 1.23 mm | 0.83 mm | 56% | 14% | 2.7 | 1.4 mm | 24.89 µM | 1.05 mm | 1.59 mm
1 µg/mL and 1.05 µM | 0.5 µg/mL and 0.524 µM | 0.25 µg/mL and 0.262 µM | 0.5 µg/mL and 0.524 µM | 0.25 µg/mL and 0.262 µM | COc1cc(/C=C/C(=O)/C=C(O)/C=C/c2ccc(OC(=O)[C@H](C)NC(=O)OCC3c4ccccc4-c4ccccc43)c(OC)c2)ccc1OC(=O)[C@H](C)NC(=O)OCC1c2ccccc2-c2ccccc21 | 43% | 20.22% | 51% | 23% | 56% | 54.4% | 0.62 mm | 0.41 mm | 12% | 64% | 2.22 | 1.02 mm | 21.79 µM | 2.12 mm | 1.59 mm
